Data from patent US9138438B2, “Method for protecting a retinal neuronal cell” (ASAHI GLASS COMPANY, LIMITED, priority 2005, dated 2015).

System: rat fetal retinal neuronal cells
Assay: Glutamate-induced retinal neuronal cell death, trypan blue survival rate
Assay type: cell-based
Settings: test compound 0.1 nM to 100 nM; 24 hours pre-incubation, 1 mM glutamate 10 minutes, then 1 hour with test compound; survival rate by trypan blue
Method: In order to find a new pharmaceutical application of a prostaglandin F2α derivative, by using rat fetal retinal neuronal cells, an effect of a prostaglandin F2α derivative on protecting retinal neuronal cells against glutamate-induced retinal neuronal cell death was evaluated and examined.
Incidentally, as the prostaglandin F2α derivative which is a test compound, 16-phenoxy-15-deoxy-15,15-difluoro-17,18,19,20-tetranor-prostaglandin F2α was used.
A pregnant SD rat was subjected to laparotomy under systemic anesthesia, and the uterus was transferred to a dish containing Hanks's balanced salt solution (HBSS). A rat fetus was isolated from the uterus, and the eyeballs of the rat fetus were taken out. The retina was isolated from the eyeballs under a stereoscopic microscope and cut into pieces with a surgical knife. […] After the cell number was counted with a hemocytometer, an MEM medium containing 10% FBS was added thereto, whereby a cell suspension with a cell density of 0.8×10^6 cells/mL was obtained. […]
At day 10 of culture, the plastic discs in which cells were inoculated and cultured were transferred to the HS-containing MEM medium containing the test compound and incubated for 24 hours (37° C., 5% CO2). […] After the cells were washed with a physiological saline solution, stained cells and unstained cells were counted under an inverted microscope. […]

Question: `O=C(O)CCC/C=C\C[C@@H]1[C@@H](/C=C/C(F)(F)COc2ccccc2)[C@H](O)C[C@@H]1O` [test compound, 16-phenoxy-15-deoxy-15,15-difluoro-17,18,19,20-tetranor-prostaglandin F2α] was tested. Which “glutamate-induced retinal neuronal cell death” value did it give?
Answer: The value was “inhibited in a concentration-dependent manner”.
